Measured values taken from patent publication US20260207560A1, “PLURALITY OF GRANULES” (priority 2022, published 2026).
Values joined by “and” are separate entries in the source; they are usually repeats but may differ in a detail not shown here. Equal entries are not always repeated.

Experiments:
[1] = Stability of active ingredient in volatile solvents, 20-28 hours at ambient (UPLC assay and impurities); details: for Assay (as % of nominal): vial replicates
Description: Note the incubation for the stability studies were all performed in a similar way: • All were put into 4 mL amber glass vials. • The Initial samples were not analysed as soon as sampled but instead were frozen at −20° C. until the point of analysing the incubated samples (e.g after 28 days at 25, 40 or 50° C.) to avoid degradation of the active ingredient.
Chemical stability was determined by assay (results in Table 8) and quantification of potential active ingredient related substances (shown in
Table 9). […] The objective was to establish whether any active ingredient-related substances might be increasing as a result of the ambient hold.

[2] = in vivo; cited from earlier work
[3] = 5% SLS aq., Initial, listed as active ingredient
[4] = Ethanol absolute, 24 hour, listed as active ingredient
[5] = Ethanol absolute, Initial, listed as active ingredient
[6] = pH 3 citric acid buffer, 24 hour
[7] = pH 3 citric acid buffer, 24 hour, listed as active ingredient
[8] = pH 3 citric acid buffer, Initial
[9] = pH 3 citric acid buffer, Initial, listed as active ingredient

CCS(=O)(=O)Nc1ccc2c(c1)nc(C(C)(C)C)n2CC1CCC(F)(F)CC1 [Compound I, N-(2-(tert-butyl)-1-((4,4-difluorocyclohexyl)methyl)-1H-benzimidazol-5-yl)ethanesulfonamide]
Impurity peak area, Total excluding artifact [1, 3]: 0.96 % of Total and 0.88 % of Total | Assay (as % of nominal) [1, 3]: 105.0 % of nominal and 101.7 % of nominal | Assay (as % of nominal), Mean ([1]; Ethanol Absolute, 24 hours ambient): 99.0 % of nominal | Assay (as % of nominal) ([1]; Ethanol Absolute, 24 hours ambient, listed as active ingredient): 100.2 % of nominal and 97.7 % of nominal | Assay (as % of nominal) ([1]; Ethanol Absolute, Initial): 107.1 % of nominal | Assay (as % of nominal) ([1]; Ethanol Absolute, Initial, listed as active ingredient): 90.6 % of nominal | Impurity peak area, RRT 0.86^$ (PDA spectra unrelated to the active ingredient) ([1]; Ethanol absolute, 24 hour): <0.05 % of Total | Impurity peak area, RRT 0.92 ([1]; Ethanol absolute, 24 hour): <0.05 % of Total | Impurity peak area, RRT 1.04* ([1]; Ethanol absolute, 24 hour): <0.05 % of Total | Impurity peak area, RRT 1.23* ([1]; Ethanol absolute, 24 hour): 0.07 % of Total | Impurity peak area, RRT 1.24* ([1]; Ethanol absolute, 24 hour): <0.05 % of Total | Impurity peak area, RRT 1.35* ([1]; Ethanol absolute, 24 hour): 0.08 % of Total | Impurity peak area, RRT 1.36* ([1]; Ethanol absolute, 24 hour): 0.06 % of Total | Impurity peak area, RRT 0.84* [1, 4]: 0.33 % of Total and 0.35 % of Total | Impurity peak area, RRT 0.98* (first row) [1, 4]: 0.22 % of Total and 0.20 % of Total | Impurity peak area, RRT 0.98* (second row) [1, 4]: 0.13 % of Total and 0.14 % of Total | Impurity peak area, Total [1, 4]: 0.89 % of Total and 0.90 % of Total | Impurity peak area, Total excluding artifact [1, 4]: 0.89 % of Total and 0.90 % of Total | Assay (as % of nominal), Mean ([1]; Ethanol absolute, Initial): 98.8 % of nominal | Impurity peak area, RRT 0.38 ([1]; Ethanol absolute, Initial): 0.07 % of Total | Impurity peak area, RRT 0.61 ([1]; Ethanol absolute, Initial): 0.08 % of Total | Impurity peak area, RRT 0.62 ([1]; Ethanol absolute, Initial): 0.09 % of Total | Impurity peak area, RRT 0.83 ([1]; Ethanol absolute, Initial): 0.18 % of Total | Impurity peak area, RRT 0.92 ([1]; Ethanol absolute, Initial): <0.05 % of Total | Impurity peak area, RRT 0.98* (second row) ([1]; Ethanol absolute, Initial): 0.12 % of Total | Impurity peak area, RRT 1.24* ([1]; Ethanol absolute, Initial): <0.05 % of Total | Impurity peak area, RRT 1.36* ([1]; Ethanol absolute, Initial): 0.06 % of Total | Impurity peak area, RRT 0.84* [1, 5]: 0.37 % of Total and 0.33 % of Total | Impurity peak area, RRT 0.98* (first row) [1, 5]: 0.20 % of Total and 0.22 % of Total | Impurity peak area, RRT 1.04* [1, 5]: 0.05 % of Total and <0.05 % of Total | Impurity peak area, RRT 1.23* [1, 5]: 0.08 % of Total and 0.07 % of Total | Impurity peak area, RRT 1.35* [1, 5]: 0.08 % of Total and 0.09 % of Total | Impurity peak area, Total [1, 5]: 0.96 % of Total and 1.47 % of Total | Impurity peak area, Total excluding artifact [1, 5]: 0.96 % of Total and 0.89 % of Total | Degradation of the active ingredient ([1]; four volatile solvents, 20-28 hour hold at ambient temperature): no evidence for any active ingredient degradation | Total impurities, highest in any case ([1]; four volatile solvents, initial and 20-28 hour ambient hold): ≤ 1.17 % of the total peak area | Impurity peak area, RRT 0.92 [1, 6]: 0.06 % of Total | Impurity peak area, RRT 1.04* [1, 6]: 0.09 % of Total | Impurity peak area, RRT 1.23* [1, 6]: 0.10 % of Total | Impurity peak area, RRT 0.38 [1, 7]: 0.26 % of Total and 0.14 % of Total | Impurity peak area, RRT 0.61 [1, 7]: 0.07 % of Total and 0.10 % of Total | Impurity peak area, RRT 0.62 [1, 7]: 0.07 % of Total and 0.11 % of Total | Impurity peak area, RRT 0.83 [1, 7]: 0.30 % of Total and 0.16 % of Total | Impurity peak area, RRT 0.84* [1, 7]: 0.30 % of Total and 0.37 % of Total | Impurity peak area, RRT 0.98* (first row) [1, 7]: 0.22 % of Total and 0.21 % of Total | Impurity peak area, RRT 0.98* (second row) [1, 7]: 0.13 % of Total and 0.14 % of Total | Impurity peak area, RRT 1.24* [1, 7]: <0.05 % of Total and 0.06 % of Total | Impurity peak area, Total [1, 7]: 1.88 % of Total and 1.82 % of Total | Impurity peak area, Total excluding artifact [1, 7]: 0.90 % of Total and 1.03 % of Total | Assay (as % of nominal), Mean ([1]; pH 3 citric acid buffer, 24 hours ambient): 95.8 % of nominal | Assay (as % of nominal) ([1]; pH 3 citric acid buffer, 24 hours ambient, listed as active ingredient): 109.6 % of nominal and 82.1 % of nominal | Assay (as % of nominal), Mean [1, 8]: 109.6 % of nominal | Impurity peak area, RRT 0.38 [1, 8]: 0.27 % of Total | Impurity peak area, RRT 0.41 [1, 8]: 0.26 % of Total | Impurity peak area, RRT 0.61 [1, 8]: 0.05 % of Total | Impurity peak area, RRT 0.62 [1, 8]: 0.06 % of Total | Impurity peak area, RRT 0.83 [1, 8]: 0.21 % of Total | Impurity peak area, RRT 0.86^$ (PDA spectra unrelated to the active ingredient) [1, 8]: <0.05 % of Total | Impurity peak area, RRT 1.04* [1, 8]: 0.09 % of Total | Impurity peak area, RRT 1.24* [1, 8]: <0.05 % of Total | Impurity peak area, RRT 0.92 [1, 9]: 0.10 % of Total and 0.09 % of Total | Impurity peak area, RRT 0.98* (first row) [1, 9]: 0.23 % of Total and 0.21 % of Total | Impurity peak area, RRT 0.98* (second row) [1, 9]: 0.11 % of Total and 0.13 % of Total | Impurity peak area, RRT 1.23* [1, 9]: 0.16 % of Total and 0.12 % of Total | Impurity peak area, Total [1, 9]: 1.79 % of Total and 0.97 % of Total | Impurity peak area, Total excluding artifact [1, 9]: 0.94 % of Total and 0.97 % of Total | Assay (as % of nominal) [1, 9]: 108.8 % of nominal and 110.4 % of nominal | CNS-psychoactive effects [2]: does not cause CNS-psychoactive effects | Effect on appetite [2]: stimulate appetite in a dose-dependent manner
